# Results as given in US11746100B2 (GLOBAL BLOOD THERAPEUTICS, INC., priority 2020, dated 2023).
# Biological target: T1, human ferroportin (Homo sapiens, UniProt Q9NP59)
# T1 construct: luciferase reporter (read with the Nano-Glo Luciferase Assay System); expressed in transfected cells; host or cells: CHO cells, stably transfected, expression induced with doxycycline
# T1 sequence (Q9NP59 1-571): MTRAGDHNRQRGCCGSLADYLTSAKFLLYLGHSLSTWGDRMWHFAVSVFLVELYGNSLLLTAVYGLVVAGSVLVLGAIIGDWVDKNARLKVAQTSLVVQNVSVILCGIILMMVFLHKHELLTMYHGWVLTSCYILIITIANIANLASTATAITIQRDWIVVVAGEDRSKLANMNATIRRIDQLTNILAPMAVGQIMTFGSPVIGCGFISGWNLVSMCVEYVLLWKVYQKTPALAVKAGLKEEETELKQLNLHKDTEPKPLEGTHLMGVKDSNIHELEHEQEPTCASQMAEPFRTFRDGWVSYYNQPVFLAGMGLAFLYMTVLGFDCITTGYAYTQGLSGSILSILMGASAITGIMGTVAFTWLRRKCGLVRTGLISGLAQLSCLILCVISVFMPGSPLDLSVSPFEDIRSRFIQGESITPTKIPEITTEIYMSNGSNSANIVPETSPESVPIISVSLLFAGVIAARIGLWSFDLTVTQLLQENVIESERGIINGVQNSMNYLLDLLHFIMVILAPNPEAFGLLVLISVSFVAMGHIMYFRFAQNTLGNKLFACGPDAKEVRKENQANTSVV
# Experiment: Biological in-vitro ferroportin internalization assay (luciferase reporter)
# Format: cell-based
# Settings: average pEC50; stably-transfected CHO cell line expressing human ferroportin tagged to a luciferase reporter; 6 h incubation with test compound
# Method in brief: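 Read-out is Nano-Glo luciferase signal after 6 h compound exposure, with average pEC50 derived. Cells are a stable CHO line carrying luciferase-tagged human ferroportin, pre-loaded 24 h with ferric ammonium citrate and doxycycline-induced for 24 h.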
row,Structure (SMILES),pEC50
1,"CC(C)[C@@H](O)COc1ccnc(-c2nc3c(c(N(C)CC(=O)NC(C)(C)C)n2)CCC3)c1 [Compound 387, N-tert-butyl-2-[(2-{4-[(2R)-2-hydroxy-3-methylbutoxy]pyridin-2-yl}-5H,6H,7H-cyclopenta[d]pyrimidin-4-yl)(methyl)amino]acetamide]",8.2
2,"COc1ccc(NC(=O)CN(C)c2nc(-c3cc(OCCN(C)C)ccn3)nc3c2CCC3)cn1 [Compound 344, 2-[(2-{4-[2-(dimethylamino)ethoxy]pyridin-2-yl}-5H,6H,7H-cyclopenta[d]pyrimidin-4-yl)(methyl)amino]-N-(6-methoxypyridin-3-yl)acetamide]",7.6
3,"C[C@H]1OC[C@@H]1Oc1ccnc(-c2nc3c(c(N(C)CC(=O)NC(C)(C)C)n2)CCC3)c1 (racemic) [Compound 333, N-tert-butyl-2-{methyl[2-(4-{[(2R,3S)-2-methyloxetan-3-yl]oxy}pyridin-2-yl)-5H,6H,7H-cyclopenta[d]pyrimidin-4-yl]amino}acetamide]",7.8
4,"CN(CC(=O)NC1CCCC1)c1nc(-c2cc(OCC(C)(C)O)ccn2)nc2c1CCC2 [Compound 421, N-cyclopentyl-2-({2-[4-(2-hydroxy-2-methylpropoxy)pyridin-2-yl]-5H,6H,7H-cyclopenta[d]pyrimidin-4-yl}(methyl)amino)acetamide]",8.2
5,"COc1ccnc(-c2nc3c(c(N(C)CC(=O)N(C)C)n2)CCC3)c1 [Compound 157, 2-{[2-(4-methoxypyridin-2-yl)-5H,6H,7H-cyclopenta[d]pyrimidin-4-yl](methyl)amino}-N,N-dimethylacetamide]",7.3
6,"CN(CC(=O)NC1(C)CCCC1)c1nc(-c2cc(OCCO)ccn2)nc2c1CCC2 [Compound 179, 2-({2-[4-(2-hydroxyethoxy)pyridin-2-yl]-5H,6H,7H-cyclopenta[d]pyrimidin-4-yl}(methyl)amino)-N-(1-methylcyclopentyl)acetamide]",7.7
7,"CN(CC(=O)NC(C)(C)C)c1nc(-c2cc(OCCN)ccn2)nc2c1CCC2 [Compound 483, 2-({2-[4-(2-aminoethoxy)pyridin-2-yl]-5H,6H,7H-cyclopenta[d]pyrimidin-4-yl}(methyl)amino)-N-tert-butylacetamide]",7.2
8,"CN(CC(=O)NC(C)(C)C)c1nc(-c2ccc(Cl)cn2)nc2c1CCC2 [Compound 300, N-tert-butyl-2-{[2-(5-chloropyridin-2-yl)-5H,6H,7H-cyclopenta[d]pyrimidin-4-yl](methyl)amino}acetamide]",6.2
9,"CC(C)NC(=O)CN(C)c1nc(-c2cc(OCCN3CCOCC3=O)ccn2)nc2c1CCC2 [Compound 436, 2-[methyl(2-{4-[2-(3-oxomorpholin-4-yl)ethoxy]pyridin-2-yl}-5H,6H,7H-cyclopenta[d]pyrimidin-4-yl)amino]-N-(propan-2-yl)acetamide]",7.3
10,"CN(C)CCOc1ccnc(-c2nc3c(c(N(C)CC(=O)Nc4cccc(F)c4)n2)CCC3)c1 [Compound 294, 2-[(2-{4-[2-(dimethylamino)ethoxy]pyridin-2-yl}-5H,6H,7H-cyclopenta[d]pyrimidin-4-yl)(methyl)amino]-N-(3-fluorophenyl)acetamide]",7.9
11,"CN(C)CCOc1ccnc(-c2nc3c(c(N(C)CC(=O)NC(C)(C)C)n2)C(O)CC3)c1 (centres unmarked) [Compound 493, N-tert-butyl-2-[(2-{4-[2-(dimethylamino)ethoxy]pyridin-2-yl}-5-hydroxy-5H,6H,7H-cyclopenta[d]pyrimidin-4-yl)(methyl)amino]acetamide]",6.9
12,"CN(CC(=O)Nc1ccc(C2CC2)nc1)c1nc(-c2cc(OCCO)ccn2)nc2c1CCC2 [Compound 308, N-(6-cyclopropylpyridin-3-yl)-2-({2-[4-(2-hydroxyethoxy)pyridin-2-yl]-5H,6H,7H-cyclopenta[d]pyrimidin-4-yl}(methyl)amino)acetamide]",8.1
13,"O=C(CNc1nc(-c2ccccn2)nc2c1CCC2)Nc1ccccn1 [Compound 5, N-(pyridin-2-yl)-2-{[2-(pyridin-2-yl)-5H,6H,7H-cyclopenta[d]pyrimidin-4-yl]amino}acetamide]",6.2
14,"CCOc1ccnc(-c2nc3c(c(N(C)CC(=O)Nc4ccc(OC)nc4)n2)CCC3)c1 [Compound 223, 2-{[2-(4-ethoxypyridin-2-yl)-5H,6H,7H-cyclopenta[d]pyrimidin-4-yl](methyl)amino}-N-(6-methoxypyridin-3-yl)acetamide]",7.8
15,"COc1ccnc(-c2nc3c(c(N4CCCCCC4)n2)CCC3)c1 [Compound 53, 1-[2-(4-methoxypyridin-2-yl)-5H,6H,7H-cyclopenta[d]pyrimidin-4-yl]azepane]",6.6
16,"CC1(C)CC[C@@H](Nc2nc(-c3ccccn3)nc3c2CCC3)C(=O)N1 [Compound 55, (3R)-6,6-dimethyl-3-{[2-(pyridin-2-yl)-5H,6H,7H-cyclopenta[d]pyrimidin-4-yl]amino}piperidin-2-one]",6.3
17,"CN(CC(=O)NC1(C(F)(F)F)CC1)c1nc(-c2cc(OCC(C)(C)N(C)C)ccn2)nc2c1CCC2 [Compound 423, 2-[(2-{4-[2-(dimethylamino)-2-methylpropoxy]pyridin-2-yl}-5H,6H,7H-cyclopenta[d]pyrimidin-4-yl)(methyl)amino]-N-[1-(trifluoromethyl)cyclopropyl]acetamide]",7.7
18,"COc1ccnc(-c2nc3c(c(N(C)CC(=O)N[C@H]4CCCC[C@H]4O)n2)CCC3)c1 [Compound 169, N-[(1S,2R)-2-hydroxycyclohexyl]-2-{[2-(4-methoxypyridin-2-yl)-5H,6H,7H-cyclopenta[d]pyrimidin-4-yl](methyl)amino}acetamide]",7.3
19,"CN(CC(=O)Nc1cnn(C)c1)c1nc(-c2cc(OCC3CC3)ccn2)nc2c1CCC2 [Compound 215, 2-({2-[4-(cyclopropylmethoxy)pyridin-2-yl]-5H,6H,7H-cyclopenta[d]pyrimidin-4-yl}(methyl)amino)-N-(1-methyl-1H-pyrazol-4-yl)acetamide]",7.5
20,"C[C@@H](C(=O)NC(C)(C)C)N(C)c1nc(-c2ccccn2)nc2c1CCC2 [Compound 52, (2S)—N-tert-butyl-2-{methyl[2-(pyridin-2-yl)-5H,6H,7H-cyclopenta[d]pyrimidin-4-yl]amino}propanamide]",6.8
21,"CN(c1nc(-c2ccccn2)nc2c1CCC2)[C@H]1CCN(c2ccncc2)C1=O [Compound 208, (3S)-3-{methyl[2-(pyridin-2-yl)-5H,6H,7H-cyclopenta[d]pyrimidin-4-yl]amino}-1-(pyridin-4-yl)pyrrolidin-2-one]",5.7
22,"CN(CC(=O)NC(C)(C)CO)c1nc(-c2cn(C)cn2)nc2c1CCC2 [Compound 143, N-(1-hydroxy-2-methylpropan-2-yl)-2-{methyl[2-(1-methyl-1H-imidazol-4-yl)-5H,6H,7H-cyclopenta[d]pyrimidin-4-yl]amino}acetamide]",7.2
23,"CN(CC(=O)NC(C)(C)C)c1nc(-c2cc3cn(C)nc3cn2)nc2c1CCC2 [Compound 336, N-tert-butyl-2-[methyl(2-{2-methyl-2H-pyrazolo[3,4-c]pyridin-5-yl}-5H,6H,7H-cyclopenta[d]pyrimidin-4-yl)amino]acetamide]",7.8
24,"CN(C)CCOc1ccnc(-c2nc(N(C)CC(=O)NC(C)(C)C)c3c(n2)C(C)(C)CC3)c1 [Compound 457, N-tert-butyl-2-[(2-{4-[2-(dimethylamino)ethoxy]pyridin-2-yl}-7,7-dimethyl-5H,6H,7H-cyclopenta[d]pyrimidin-4-yl)(methyl)amino]acetamide]",6.3
25,"CC(C)NC(=O)CN(C)c1nc(-c2cc(OCCN(C)C)ccn2)nc2c1C(C)(C)CC2 [Compound 435, 2-[(2-{4-[2-(dimethylamino)ethoxy]pyridin-2-yl}-5,5-dimethyl-5H,6H,7H-cyclopenta[d]pyrimidin-4-yl)(methyl)amino]-N-(propan-2-yl)acetamide]",7.8
26,"CCC(O)(CC)COc1ccnc(-c2nc3c(c(N(C)CC(=O)N[C@@H]4CCC[C@@H]4O)n2)CCC3)c1 [Compound 469, 2-({2-[4-(2-ethyl-2-hydroxybutoxy)pyridin-2-yl]-5H,6H,7H-cyclopenta[d]pyrimidin-4-yl}(methyl)amino)-N-[(1R,2S)-2-hydroxycyclopentyl]acetamidede]",8.3
27,"CN(c1nc(-c2ccccn2)nc2c1CCC2)[C@@H]1CCN(c2ccccc2)C1=O [Compound 130, (3R)-3-{methyl[2-(pyridin-2-yl)-5H,6H,7H-cyclopenta[d]pyrimidin-4-yl]amino}-1-phenylpyrrolidin-2-one]",6.9
28,"CN(C)CCOc1ccnc(-c2nc3c(c(N(C)CC(=O)NC(C)(C)C)n2)CCC3O)c1 (centres unmarked) [Compound 494, N-tert-butyl-2-[(2-{4-[2-(dimethylamino)ethoxy]pyridin-2-yl}-7-hydroxy-5H,6H,7H-cyclopenta[d]pyrimidin-4-yl)(methyl)amino]acetamide]",6.3
29,"CN(CC(=O)NC(C)(C)C)c1nc(-c2cc(CCC(C)(C)O)ccn2)nc2c1CCC2 [Compound 481, N-tert-butyl-2-({2-[4-(3-hydroxy-3-methylbutyl)pyridin-2-yl]-5H,6H,7H-cyclopenta[d]pyrimidin-4-yl}(methyl)amino)acetamide]",7.7
